Assays:
[1] = test system: naturally occurring foot rot; experiment: Efficacy of a single subcutaneous dose against naturally occurring foot rot in feedlot cattle (lameness and lesion scoring); format: in vivo, bovine animals; settings: for average lameness score: score guide 1-5 (Table 1); for average lesion score: score guide 1-5 (Table 2)
Procedure: (§1) Thirty animals were enrolled to the Control Group and another thirty animals were enrolled in the Tildipirosin treated Group. The tildipirosin-treated group received a single dose, subcutaneously, while the control group was treated with a saline sterile solution. Both groups (treated and control) were housed in the same paddocks under typical Brazilian feedlot conditions.
Sixty animals were included in the trial in two different phases, according to the number of available animals that fulfill the inclusion criteria. The study was masked. […] The animals were randomized and evenly distributed across the treatment groups according to 15 blocks of 2 animals each in both inclusion dates (there were 2 inclusion dates, for a total of 60 animals).
The effectiveness of tildipirosin for the treatment of foot rot was evaluated by comparing the proportion of treatment success/improvement in the tildipirosin-treated group to the saline-treated control group on Day 7.
The lameness and the lesion scoring are described in Tables 1 and 2 below.
The animals' lesion and lameness score were assessed by the investigator on Days −1 and 0 of the study. To qualify for the effectiveness portion of the study, animals were diagnosed with foot rot by meeting the following criteria: • Lameness Score 3 in at least one foot for 2 consecutive days. • Lesion Score 2 in at least one foot for 2 consecutive days. • Clinically healthy (excepting lameness) • Body weight (348-499 kg body weight) • Age (20-24 months)
On Day 0, before treatment, bacteriological samples were collected from the infected hooves of the enrolled cattle. Lesions and lameness were also assessed on Days 2, 4 and 7. Treatment success, improvement, or failure was determined on Day 7 and was based on lameness and lesion score compared to Day 0. On Day 7, another bacteriological sample was collected from all animals.

[2] = test system: Fusobacterium necrophorum; experiment: Bacterial evaluation of hoof lesion samples (culture, biochemical tests and PCR) before treatment and on Day 7; format: in vivo; settings: Day 0 vs Day 7, in comparison to the control group
Procedure: On Day 0, before treatment, bacteriological samples were collected from the infected hooves of the enrolled cattle. Lesions and lameness were also assessed on Days 2, 4 and 7. Treatment success, improvement, or failure was determined on Day 7 and was based on lameness and lesion score compared to Day 0. On Day 7, another bacteriological sample was collected from all animals. Bacteriological samples were collected on a sterile scraper and on a sterile swab from the border of healthy and necrotic tissue (around the hoof lesion) of the infected hooves of the enrolled cattle. The tip of the scraper, containing discharge from the lesions, was fractured off into 15 ml tubes containing 7 ml of a semi solid transport media formulated exclusively to anaerobic bacteria and the swab was discharged in a semi solid transport. The tubes were kept under refrigeration (4 to 8° C.) until they arrive into the laboratory. At the laboratory, the samples grew in culture media appropriated to F. necrophorum and Dichelobacter nodosus isolation. Isolates were identified using confirmatory biochemical tests and polymerase chain reaction (PCR) specific to F. necrophorum and D. nodosus species.

[3] = Health observations and adverse events in the foot rot study; format: in vivo, bovine animals
Procedure: as §1

[4] = Day 0, before treatment, treated group
[5] = Day 7 after single subcutaneous dose of 4 mg/kg BW

Q: Which average lameness score [1, 4] does the source give for `CC[C@H]1OC(=O)C[C@@H](O)[C@H](C)[C@@H](O[C@@H]2O[C@H](C)[C@@H](O)[C@H](N(C)C)[C@H]2O)[C@@H](CCN2CCCCC2)C[C@@H](C)C(=O)/C=C/C(C)=C/[C@@H]1CN1CCCCC1` [tildipirosin, (4R,5S,6S,7R,9R,11E,13E,15R,16R)-6-[(2R,3R,4S,5S,6R)-4-(dimethylamino)-3,5-dihydroxy-6-methyloxan-2-yl]oxy-16-ethyl-4-hydroxy-5,9,13-trimethyl-7-(2-piperidin-1-ylethyl)-15-(piperidin-1-ylmethyl)-1-oxacyclohexadeca-11,13-diene-2,10-dione] here?
A: 3.1

Q: What about the average lesion score [1, 4] of the same compound?
A: 2.3

Q: And the average lameness score [1, 5]?
A: 1.3

Q: What about the average lesion score [1, 5] of the same compound?
A: 1.9

Q: What about the “treatment of naturally occurring foot rot” value ([1]; single subcutaneous dose of 4 mg of tildipirosin per kg BW) of the same compound?
A: effectively treat

Q: And the “bacterial evaluation (PCR identification of Fusobacterium necrophorum before vs after treatment)” value [2]?
A: not conclusive

Q: And the abnormal health observations ([3]; before or after treatment, single subcutaneous dose 4 mg/kg BW)?
A: no abnormal health observations

Q: What about the “adverse event (broken toenail on Day 7, one animal), relation to treatment” value ([3]; tildipirosin-treated group, according to the investigator) of the same compound?
A: not related to the tildipirosin treatment

Reference: patent US20240000820A1, “A METHOD OF TREATING FOOT ROT” (Intervet Inc., priority 2020, published 2024)
